In patent US6291694A, “Process and intermediates useful to produce vitamin D analogs” (Hoffman-La Roche Inc., priority 2000, dated 2001) one finds pKa in water data, which are given here for five compounds.

The nature of the data set: pKa of alcohol additive in water. The data set is classed as physicochemical.
`OC(c1ccccc1)(C(F)(F)F)C(F)(F)F` [formula 15c, 1,1,1,3,3,3-hexafluoro-2-phenyl-2-propanol] showed a pKa in water of 8.52.
The compound `CC(O)(C(F)(F)F)C(F)(F)F` [formula 15a] yielded a pKa in water of 9.51.
For `OC(c1cccc(C(O)(C(F)(F)F)C(F)(F)F)c1)(C(F)(F)F)C(F)(F)F` [Formula 16, 1,3-bis(1,1,1,3,3,3, -hexafluoro-2-hydroxypropyl)benzene], the pKa in water is on record as 8.48.
`OC(C(F)(F)F)C(F)(F)F` [formula 15b] showed a pKa in water of 9.13.
In turn, `OC(C(F)(F)F)(C(F)(F)F)C(F)(F)F` [formula 15d, perfluoro-t-butanol] gave a pKa in water of 5.18.
